# Experiments:
# X-αR/βC = biological target: T1, X-αR/βC (Bos taurus, UniProt Q00194, A200G/A344S/A378F/A555M/A612E/C169F/D157S/D193E/D538A/D588Q/D604M/DEL101-144/DEL91-95/E147F/E148K/E189Q/E196F/E230D/E231L/F201L/F214C/F374V/G160D/G591A/G605N/I156V/I181L/I182V/I235R/I530V/I609V/I611A/INS98[…]/K146T/K150R/K151W/K237N/K239I/K346C/K506R/K521Q/K551Q/K564R/K590Q/K598R/L195F/L199V/L210I/L351F/L583V/L593M/L606K/M175L/M213T/M592V/M602L/N161D/N165Y/N613A/P158Q/P173A/Q494R/Q599E/Q97T/R232A/R345F/R369K/R512K/S192D/S205C/S240R/S350C/S371E/S537T/S540G/T162I/T171A/T179I/T217L/T364M/T584A/V153G/V154F/V174S/V208I/V215I/V534A/V535L/Y194N/Y197L/Y541C); test: Macroscopic current dose–response in inside-out patches from Xenopus oocytes; type: cell-based, chimera of bovine CNG1, catfish CNG2 and rat CNG5
# T1 sequence (Q00194 with tags, fused parts or gaps DEL91-95/Q97T/INS98[…]/DEL101-144/K146T/E147F/E148K/K150R/K151W/V153G/V154F/I156V/D157S/P158Q/G160D/N161D/T162I/N165Y/C169F/T171A/P173A/V174S/M175L/T179I/I181L/I182V/E189Q/S192D/D193E/Y194N/L195F/E196F/Y197L/L199V/A200G/F201L/S205C/V208I/L210I/M213T/F214C/V215I/T217L/E230D/E231L/R232A/I235R/K237N/K239I/S240R/A344S/R345F/K346C/S350C/L351F/T364M/R369K/S371E/F374V/A378F/Q494R/K506R/R512K/K521Q/I530V/V534A/V535L/S537T/D538A/S540G/Y541C/K551Q/A555M/K564R/L583V/T584A/D588Q/K590Q/G591A/M592V/L593M/K598R/Q599E/M602L/D604M/G605N/L606K/I609V/I611A/A612E/N613A): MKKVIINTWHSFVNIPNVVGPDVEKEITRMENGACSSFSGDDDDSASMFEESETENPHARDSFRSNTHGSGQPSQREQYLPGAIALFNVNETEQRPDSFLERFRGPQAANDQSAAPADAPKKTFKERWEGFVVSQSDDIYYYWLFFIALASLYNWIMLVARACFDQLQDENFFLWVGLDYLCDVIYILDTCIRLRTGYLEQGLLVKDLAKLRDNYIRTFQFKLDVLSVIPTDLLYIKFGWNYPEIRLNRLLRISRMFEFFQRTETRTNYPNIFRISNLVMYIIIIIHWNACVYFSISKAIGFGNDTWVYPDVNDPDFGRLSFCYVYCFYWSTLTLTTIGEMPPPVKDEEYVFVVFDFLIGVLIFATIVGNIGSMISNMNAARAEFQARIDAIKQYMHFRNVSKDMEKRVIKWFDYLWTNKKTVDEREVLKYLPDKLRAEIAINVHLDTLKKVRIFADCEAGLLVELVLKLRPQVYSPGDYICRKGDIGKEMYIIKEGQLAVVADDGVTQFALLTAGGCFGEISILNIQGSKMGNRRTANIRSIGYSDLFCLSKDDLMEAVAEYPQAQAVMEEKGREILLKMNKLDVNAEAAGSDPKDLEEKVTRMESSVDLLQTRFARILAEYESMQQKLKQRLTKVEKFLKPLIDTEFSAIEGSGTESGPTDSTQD
# X-α homomeric channels = biological target: T2, X-α homomeric channels (Bos taurus, UniProt Q00194, A200G/A344S/A378F/A555M/A614G/C169F/D157S/D193E/D538A/D604Q/DEL101-144/DEL91-95/E147F/E148K/E189Q/E196F/E230D/E231L/F201L/F214C/F374V/G160D/G591K/I156V/I181L/I182V/I235R/I530V/I609E/I611V/INS98[…]/K146T/K150R/K151W/K237N/K239I/K346C/K506R/K521Q/K551Q/K564R/K590Q/K596R/K598R/L195F/L199V/L210I/L351F/L583V/M175L/M213T/M592V/M602R/N161D/N165Y/N610S/N613A/P158Q/P173A/Q494R/Q599E/Q97T/R232A/R345F/R369K/R512K/S192D/S205C/S240R/S350C/S371E/S537T/S540G/T162I/T171A/T179I/T217L/T364M/T584A/V153G/V154F/V174S/V208I/V215I/V534A/V535L/Y194N/Y197L/Y541C); test: as above; type: cell-based, chimera of bovine CNG1 and catfish CNG2
# T2 sequence (Q00194 with tags, fused parts or gaps DEL91-95/Q97T/INS98[…]/DEL101-144/K146T/E147F/E148K/K150R/K151W/V153G/V154F/I156V/D157S/P158Q/G160D/N161D/T162I/N165Y/C169F/T171A/P173A/V174S/M175L/T179I/I181L/I182V/E189Q/S192D/D193E/Y194N/L195F/E196F/Y197L/L199V/A200G/F201L/S205C/V208I/L210I/M213T/F214C/V215I/T217L/E230D/E231L/R232A/I235R/K237N/K239I/S240R/A344S/R345F/K346C/S350C/L351F/T364M/R369K/S371E/F374V/A378F/Q494R/K506R/R512K/K521Q/I530V/V534A/V535L/S537T/D538A/S540G/Y541C/K551Q/A555M/K564R/L583V/T584A/K590Q/G591K/M592V/K596R/K598R/Q599E/M602R/D604Q/I609E/N610S/I611V/N613A/A614G): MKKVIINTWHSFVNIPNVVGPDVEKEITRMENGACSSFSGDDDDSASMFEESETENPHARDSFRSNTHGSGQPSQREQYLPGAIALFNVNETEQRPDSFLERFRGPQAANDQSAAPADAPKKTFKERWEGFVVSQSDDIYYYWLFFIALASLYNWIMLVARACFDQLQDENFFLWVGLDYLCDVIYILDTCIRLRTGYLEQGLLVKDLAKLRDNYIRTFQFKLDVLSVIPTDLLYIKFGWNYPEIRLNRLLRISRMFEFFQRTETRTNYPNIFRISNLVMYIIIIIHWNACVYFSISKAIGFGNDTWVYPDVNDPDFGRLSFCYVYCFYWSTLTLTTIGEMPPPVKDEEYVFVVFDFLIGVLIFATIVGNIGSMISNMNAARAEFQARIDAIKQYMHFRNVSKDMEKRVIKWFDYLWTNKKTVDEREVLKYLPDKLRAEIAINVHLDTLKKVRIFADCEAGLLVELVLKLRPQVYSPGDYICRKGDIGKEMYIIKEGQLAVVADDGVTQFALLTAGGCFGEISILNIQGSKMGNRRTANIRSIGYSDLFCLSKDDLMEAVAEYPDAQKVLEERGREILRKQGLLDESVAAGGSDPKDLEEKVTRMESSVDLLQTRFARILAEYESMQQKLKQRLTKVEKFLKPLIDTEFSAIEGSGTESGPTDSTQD
structure (smiles),measurement,setting,value
Nc1nc2c(ncn2[C@@H]2O[C@@H]3COP(=O)([O-])O[C@H]3[C@H]2O)c(=O)[nH]1.[Na+] [cGMP],Desensitization,X-αR/βC,Yes
same,agonist concentration above which desensitization occurs,X-αR/βC; biphasic dose–response curve,above 3 mM
same,Hill coefficient h,"X-αR/βC; −100 mV, composite fit ± SEM, cGMP: excluding data >3 mM",1.120 ± 0.044
same,agonist concentration at maximum of steady-state Popen dose–response curve,X-α homomeric channels,~3 mM
same,Desensitization,X-α homomeric channels; agonist up to 30 mM,Yes
same,agonist concentration at which macroscopic current decays (desensitization),X-α homomeric channels; steady-state level lower than in 3 mM cGMP,≥ 10 mM
same,Hill coefficient h,"X-α homomeric channels; −100 mV, Hill fit of composite dataset, cGMP: only data ≤3 mM",1.210 ± 0.046
